Laboratory results reported in paper PMC10686989, “Distinct activation mechanisms of β-arrestin-1 revealed by ^19F NMR spectroscopy” (Nature Communications, 2023).

What was measured:
βarr1 [1] = target: T1, βarr1 (Homo sapiens, UniProt P49407, C125S/C140L/C150V/C242V/C251V/C269S/C59V/D390C); experiment: 19F CEST experiments on βarr1; type: biochemical
T1 construct: we started from a full-length functional cysteine-less βarr1 construct[20]; 6xHis-tag with SSG linker and thrombin cleavage site (N, cleaved yes); made in house; host or cells: E. coli BL21(DE3)
Protocol: The ^19F CEST experiments were acquired at 298 K on Bruker AVANCE III HD 800 MHz spectrometer equipped a ^1H-^19F/^13C/^15N TCI triple resonance cryogenic probe. Sample preparation was the same as for the 1D ^19F NMR experiments, and the protein concentrations were in the range of 50–100 μM depending on the expression levels of different constructs. For each ^19F-labeled sample, a series of 1D saturation transfer experiments were recorded using a 0.2 s recovery delay followed by a 1.8 s saturation period using irradiation field strengths B1 of 10 Hz. For each sample, the positions and spacings of the carrier frequencies for saturation were determined based on the multiple signals observed in the 1D ^19F spectra, normally covering the chemical shift ranges of the signals of interest. The data were collected with a spectral width of 15,000 Hz and the scan number in the range of 400–1500. The spectra were processed and analyzed using the Bruker Topspin 4.2.0 software. The CEST profiles were drawn using GraphPad Prism® 9.

βarr1 [2] = target: T1, βarr1; experiment: 1D 19F NMR of site-specifically 19F (wPSP-6F)-labeled βarr1; type: biochemical; settings: for Linewidth: 298 K, pH 8.0
Source text: The cysteine-less mutant (C59V/C125S/C140L/C150V/C242V/C251V/C269S) of the long splice variant of human βarr1 was used for introduction of single site cysteine mutation for ^19F labeling. The sequence was codon-optimized for expression in Escherichia coli and cloned into a pET-28a(+) vector (Novagen), with an N-terminal 6xHis-tag, followed by an SSG linker and a thrombin cleavage site. All mutants, including the 1–382 (βarr1-ΔCT) and 1–395 truncation constructs, were generated using site-directed mutagenesis kits (Thermo Fisher). Primer sequences for generating the mutants are listed in Supplementary Table 4.
Each single-cysteine mutant of βarr1 was diluted to a concentration of 50 μM to be labeled using the sulfoxide-based ^19F probe wPSP-6F[21],[44]. The wPSP-6F stock dissolved in buffer E was added into the protein sample at 1.5-fold molar ratio excess and incubated at 4 °C for 1 h, followed by quenching with twofold molar ratio of dithiothreitol. The sample was then fully exchanged using buffer E to remove excess of small molecules, and subjected to a second round of SEC purification. The purified proteins were concentrated to 100 μM, flash-frozen in liquid nitrogen and stored at −80 °C until use. The purities of all samples were verified by SDS-PAGE.
The ^19F-labeled βarr1 was diluted to 50 μM using buffer E before incubation with peptides or PIP2. The V2Rpp, β2AR-GRK2pp/GRK6pp or PIP2 were added at 1.2-fold, 3-fold, and 1.5-fold molar ratio excess to the protein, respectively. For the membrane-bound sample, the reconstituted nanodiscs were added at twofold molar ratio of βarr1. All complexes were incubated at 25 °C for 1 h, and the freshly prepared samples were immediately subjected to ^19F NMR experiments.
NMR samples were prepared in buffer E to a final volume of 140 μL, supplemented with 1 mM DTT, 10% D2O for field lock, and 1 μM sodium trifluoroacetate (STFA) as the internal chemical shift reference. All samples were sterile-filtered and loaded into sterile 3 mm NMR microtubes to prevent microbial contamination. Final protein concentrations vary for different constructs, depending on their expression levels and stabilities, but all in the range of 20–50 μM.
All ^19F NMR spectra were recorded at 298 K using a Bruker AVANCE III HD 800 MHz spectrometer equipped with a ^1H-^19F/^13C/^15N TCI triple resonance cryogenic probe. All data were acquired and processed using the Bruker Topspin 4.2.0 software. For all 1D ^19F NMR experiments, the traditional one-pulse sequence was used. The carrier frequency was set to −68.0 ppm and the spectra were recorded with 4k points and a spectral width of 15,000 Hz. Because accurate calibration of the 90° excitation pulse length for individual samples is not practical due to the low protein concentrations, we used the 90° pulse length calibrated from a standard sample (0.05% Trifluoro-toluene in CDCl3) for all βarr1 samples. […] Therefore, all the ^19F experiments were conducted with a 100 ms relaxation delay, and acquired using 100,000–200,000 scans depending on the sample condition, yielding a signal-to-noise (S/N) ratio of approximately 50. SDS-PAGE were run for all samples before and after NMR experiments to ensure that no protein degradation occurs during the experiments.
All NMR data were analyzed using the MestraNova 12.0.0 software (https://mnova.pl). The spectra were baseline-corrected by the Whittaker Smoother method and applied with a 30 Hz exponential windows function. The ^19F chemical shifts were referenced to STFA at −75.450 ppm. All datasets were processed using the same variables to facilitate comparison. Spectral deconvolutions were performed assuming generalized Lorentzian line shapes. To distinguish overlapping resonances, a LB value of 3 Hz was initially applied to ensure the highest resolution and determine the exact chemical shift values. The spectra were subsequently fitted iteratively using an LB value of 30 Hz. […]

T1 sequence (P49407 whole entry C59V/C125S/C140L/C150V/C242V/C251V/C269S/D390C): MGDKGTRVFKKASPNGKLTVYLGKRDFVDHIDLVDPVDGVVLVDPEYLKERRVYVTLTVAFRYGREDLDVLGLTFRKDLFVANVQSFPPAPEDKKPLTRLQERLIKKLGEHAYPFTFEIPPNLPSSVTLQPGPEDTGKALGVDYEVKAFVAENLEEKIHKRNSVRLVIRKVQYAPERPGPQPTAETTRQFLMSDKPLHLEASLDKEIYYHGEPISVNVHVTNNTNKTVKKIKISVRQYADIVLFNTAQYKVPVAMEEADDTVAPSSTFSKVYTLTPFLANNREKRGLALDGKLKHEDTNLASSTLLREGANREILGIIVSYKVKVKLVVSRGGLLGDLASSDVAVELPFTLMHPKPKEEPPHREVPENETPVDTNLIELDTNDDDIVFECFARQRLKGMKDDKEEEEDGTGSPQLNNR

Structure (SMILES): CCCCCCCC(=O)OC[C@H](COP(=O)(O)O[C@@H]1[C@H](O)[C@H](O)[C@@H](OP(=O)(O)O)[C@H](OP(=O)(O)O)[C@H]1O)OC(=O)CCCCCCC [PIP2, diC8-PI(4,5)P2]
- Intermediate S* state by CEST (βarr1 [1]; D390C site): induces an intermediate conformational species designated as S*
- Intermediate S* state by CEST (βarr1 [1]; E404C and T6C sites): induces the conformational equilibrium to shift from the basal towards an intermediate S* state
- Intermediate S* state by CEST (βarr1 [1]; H295C site): present in relatively large fraction in both the basal and PIP2-bound states
- Linewidth (βarr1 [2]; 1T36 site, ligand-bound state (V2Rpp 1.2-fold, PIP2 1.5-fold), basal 107): 102 Hz
- Linewidth increase upon PIP2 binding (βarr1 [2]; C242 site): ~ 50%
- Linewidth (βarr1 [2]; C242 site, PIP2 1.5-fold, basal 80): 120 Hz
- Linewidth (βarr1 [2]; C269 site, PIP2 1.5-fold, basal 58): 56 Hz
- Linewidth increase upon PIP2 binding (βarr1 [2]; D240C site): ~75%
- Linewidth (βarr1 [2]; D240 site, PIP2 1.5-fold, basal 75): 133 Hz
- Linewidth of the S2 resonance (βarr1 [2]; D390C site, released conformation, V2Rpp 1.2-fold or PIP2 1.5-fold): > 200 Hz
- CT displacement/release (βarr1 [2]; D390C site, V2Rpp 1.2-fold, PIP2 1.5-fold): very slight increase of the active S2 peak at the D390C site
- Linewidth (βarr1 [2]; D390 site, ligand-bound state (V2Rpp 1.2-fold, PIP2 1.5-fold), basal 87): 92 Hz
- Linewidth increase upon PIP2 binding (βarr1 [2]; E206C site): < 10%
- Spectral change at E206C (βarr1 [2]; E206C site, PIP2 alone): no obvious changes at this site
- Linewidth (βarr1 [2]; E206 site, ligand-bound state (V2Rpp 1.2-fold, PIP2 1.5-fold), basal 120): 129 Hz
- Linewidth increase upon PIP2 binding (βarr1 [2]; E283C site): < 10%
- Linewidth (βarr1 [2]; E283 site, PIP2 1.5-fold, basal 99): 106 Hz
- Linewidth increase upon PIP2 binding (βarr1 [2]; E313C site): ~ 50%
- Linewidth (βarr1 [2]; E313 site, ligand-bound state (V2Rpp 1.2-fold, PIP2 1.5-fold), basal 88): 136 Hz
- Linewidth (βarr1 [2]; E404 site, ligand-bound state (V2Rpp 1.2-fold, PIP2 1.5-fold), basal 51): 57 Hz
- Linewidth (βarr1 [2]; F244 site, ligand-bound state (V2Rpp 1.2-fold, PIP2 1.5-fold), basal 123): 200 Hz
- Linewidth increase upon PIP2 binding (βarr1 [2]; F277C site): < 10%
- Linewidth (βarr1 [2]; F277 site, PIP2 1.5-fold, basal 68): 68 Hz
- Linewidth (βarr1 [2]; H198 site, PIP2 1.5-fold, basal 107): 115 Hz
- S2 population (βarr1 [2]; H295C site, PIP2 alone, 1.5-fold): ~ 68%
- S2 population (βarr1 [2]; H295C site, PIP2 co-added with GRK2/6-phosphorylated β2AR peptides): ~ 55%
- Gate loop conformational change (S2 state) (βarr1 [2]; H295C site, V2Rpp 1.2-fold, β2AR peptides 3-fold, PIP2 1.5-fold, nanodiscs twofold): dramatic, albeit incomplete transition to the S2 state
- Linewidth (βarr1 [2]; H295 site, ligand-bound state (V2Rpp 1.2-fold, PIP2 1.5-fold), basal 230): 362 Hz
- Linewidth (βarr1 [2]; L68 site, ligand-bound state (V2Rpp 1.2-fold, PIP2 1.5-fold), basal 89): 101 Hz
- Linewidth (βarr1 [2]; L71 site, ligand-bound state (V2Rpp 1.2-fold, PIP2 1.5-fold), basal 62): 73 Hz
- Linewidth (βarr1 [2]; L100 site, ligand-bound state (V2Rpp 1.2-fold, PIP2 1.5-fold), basal 247): 242 Hz
- Linewidth (βarr1 [2]; L191 site, PIP2 1.5-fold, basal 58): 75 Hz
- Linewidth (βarr1 [2]; L293 site, ligand-bound state (V2Rpp 1.2-fold, PIP2 1.5-fold), basal 113): 141 Hz
- Linewidth (βarr1 [2]; L334 site, ligand-bound state (V2Rpp 1.2-fold, PIP2 1.5-fold), basal 50): 87 Hz
- Linewidth (βarr1 [2]; N375 site, ligand-bound state (V2Rpp 1.2-fold, PIP2 1.5-fold), basal 46): 48 Hz
- Linewidth (βarr1 [2]; T6 site, ligand-bound state (V2Rpp 1.2-fold, PIP2 1.5-fold), basal 71): 70 Hz
- Linewidth (βarr1 [2]; T183 site, ligand-bound state (V2Rpp 1.2-fold, PIP2 1.5-fold), basal 67): 89 Hz
- New peak (βarr1 [2]; Y63C site, PIP2 1.5-fold): appearance of a new peak S3
- Spectral changes in the central crest (βarr1 [2]; Y63C, L68C, L71C, T136C, F244C, V2Rpp 1.2-fold, β2AR peptides 3-fold, PIP2 1.5-fold): apparently perturbs Y63C and F244C while having little effect on the other sites
- Linewidth (βarr1 [2]; Y63 site, ligand-bound state (V2Rpp 1.2-fold, PIP2 1.5-fold), basal 118): 206 Hz
